Earlier results on 58 compounds are cited in patent US20240398763A1, “ORAL DOSAGE FORM CONTAINING ONCOLOGICAL ACTIVE INGREDIENT” (OWP Pharmaceuticals, Inc., priority 2023, published 2024).

Values after ≈ are worked out from the molar mass of the structure shown. Where a name gives a salt, the structure may show the parent alone. Read-outs that look alike come from different tables or passages of the source.

The mark [1] stands for this setting: in water / aqueous media, in words.

For `Cn1cnc2c(F)c(Nc3ccc(Br)cc3F)c(C(=O)NOCCO)cc21` [binimetinib], under setting [1], the Solubility result is “Slightly soluble at pH 1,”. In the case of `CN(C)C/C=C/C(=O)Nc1cc2c(Nc3ccc(F)c(Cl)c3)ncnc2cc1O[C@H]1CCOC1` [afatinib], under setting [1], the Solubility entry is listed as “water soluble”. As for `CS(=O)(=O)c1ccc(C(=O)Nc2ccc(Cl)c(-c3ccccn3)c2)c(Cl)c1` [vismodegib], the Solubility was 0.99 mg/mL at pH 1 (pH 1) and 0.1 μg/mL at pH 7 and (pH 7). In the case of `C=CC(=O)Nc1cc(Nc2ncc(C(=O)OC(C)C)c(-c3cn(C)c4ccccc34)n2)c(OC)cc1N(C)CCN(C)C` [mobocertinib], the Solubility result (pH 1.0 solution at 37° C.) was “solubility of 152 mg/mL”.

Take `CCCCCN(C)CCC(O)(P(=O)(O)O)P(=O)(O)O` [ibandronate sodium]: under setting [1], the Solubility result was “water soluble”. Take `Cc1cc(Nc2ncnc3ccc(NC4=NC(C)(C)CO4)cc23)ccc1Oc1ccn2ncnc2c1` [tucatinib]: under setting [1], the Solubility entry is “insoluble in water”.

As for `O=c1[nH]c(=O)n([C@H]2C[C@H](O)[C@@H](CO)O2)cc1C(F)(F)F` [trifluridine], under setting [1], the Solubility entry is “water soluble; water”. Regarding `CC(=O)O[C@]1(C(C)=O)CC[C@H]2[C@@H]3C[C@H](C)C4=CC(=O)CC[C@]4(C)[C@H]3CC[C@@]21C` [medroxyprogesterone acetate], the Solubility entry under setting [1] is listed as “insoluble in water”. With `O=C(Nc1ccc(OC(F)(F)Cl)cc1)c1cnc(N2CC[C@@H](O)C2)c(-c2ccn[nH]2)c1` [asciminib], the Solubility result under setting [1] is on record as “insoluble in water”.

Regarding `NC(=O)NO` [hydroxyurea], the Solubility (condition not given) was 15 mg/mL (≈ 197 mM). For the compound `Clc1ccc(C(c2ccccc2Cl)C(Cl)Cl)cc1` (centres unmarked) [mitotane], the Solubility entry under setting [1] is “insoluble in water”. With `CONC(=O)Nc1ccc(-c2sc3c(c2CN(C)C)c(=O)n(-c2ccc(OC)nn2)c(=O)n3Cc2c(F)cccc2F)cc1` [relugolix], the Solubility (in water at 25° C.) is given as 0.04 mg per mL in. Consider `C=C(c1ccc(C(=O)O)cc1)c1cc2c(cc1C)C(C)(C)CCC2(C)C` [bexarotene], for which the Solubility result under setting [1] is given as “insoluble in water”. On to `C[C@]12CC[C@@H]3c4ccc(OC(=O)N(CCCl)CCCl)cc4CC[C@H]3[C@@H]1CC[C@@H]2OP(=O)(O)O` [estramustine phosphate], for which the Solubility result under setting [1] was “water soluble”. `CCN(CC)CCNC(=O)c1c(C)[nH]c(/C=C2\C(=O)Nc3ccc(F)cc32)c1C` [sunitinib malate]: the Solubility entry (aqueous media over the range pH 1.2 to pH 6.8) was “is in excess of 25 mg/mL”. For the compound `CO[C@]1(C(=O)N[C@@H](C)c2ccc(-n3cc(F)cn3)nc2)CC[C@H](c2nc(C)cc(Nc3cc(C)[nH]n3)n2)CC1` [pralsetinib], the Solubility (aqueous media, pH 1.99) is reported as 0.880 mg/mL to.

As to `CN1CCN(c2ccc(C(=O)Nc3n[nH]c4ccc(Cc5cc(F)cc(F)c5)cc34)c(NC3CCOCC3)c2)CC1` [entrectinib], the Solubility result under setting [1] was “insoluble in water”.

On to `C=C(F)C(=O)N1CCN(c2nc(OC[C@@H]3CCCN3C)nc3c2CCN(c2cccc4cccc(Cl)c24)C3)C[C@@H]1CC#N` [adagrasib], for which the Solubility entry is, setting by setting: (aqueous media, pH 7.4) “to <0.010 mg/mL”; (pH 1.2) “from >262 mg/mL”. For `Cc1nc(Nc2ncc(C(=O)Nc3c(C)cccc3Cl)s2)cc(N2CCN(CCO)CC2)n1` [dasatinib], the Solubility result under setting [1] was “insoluble in water”.

Turning to `Nc1cccc2c1C(=O)N(C1CCC(=O)NC1=O)C2=O` (centres unmarked) [pomalidomide], the Solubility (all pH solutions) is around 0.01 mg/mL (≈ 0.0366 mM).

`Cc1cc(Nc2ncc(Cl)c(Nc3ccccc3S(=O)(=O)C(C)C)n2)c(OC(C)C)cc1C1CCNCC1` [ceritinib]: the Solubility entry under setting [1] was “insoluble in water”. For the compound `CCc1cc2c(cc1N1CCC(N3CCOCC3)CC1)C(C)(C)c1[nH]c3cc(C#N)ccc3c1C2=O` [alectinib], under setting [1], the Solubility entry is given as “insoluble in water”.

`N=C1CCCN1Cc1[nH]c(=O)[nH]c(=O)c1Cl` [tipiracil hydrochloride]: the Solubility result under setting [1] was “water soluble; water”. For `Nc1ncn([C@H]2C[C@H](O)[C@@H](CO)O2)c(=O)n1` [decitabine], where the note is “condition not given”, the Solubility is 22.5 mg/mL; unknown. For the compound `CC(C)(C#N)c1cc(Cn2cncn2)cc(C(C)(C)C#N)c1` [anastrozole, α,α,α′,α′-tetramethyl-5-(1H-1,2,4-triazol-1-ylmethyl)-1,3-benzenediacetonitrile, reference compound], the Solubility entry (at 25° C.) was “solubility (0.5 mg/mL”. Take `CN(Cc1cnc2nc(N)nc(N)c2n1)c1ccc(C(=O)N[C@@H](CCC(=O)O)C(=O)O)cc1` [methotrexate]: under setting [1], the Solubility result was “insoluble in water”. For `CN(C)C(=O)c1cc2cnc(Nc3ccc(N4CCNCC4)cn3)nc2n1C1CCCC1` [ribociclib], the Solubility entry under setting [1] was “insoluble in water”. For the compound `CCOc1cc2ncc(C#N)c(Nc3ccc(OCc4ccccn4)c(Cl)c3)c2cc1NC(=O)/C=C/CN(C)C` [neratinib], the Solubility result is recorded as “(0.08 mg/mL or less)” (approximate pH 5.0 and above); 1.2 (32.90 mg/mL) and (pH 1.2). With `O=C(/C=C\n1cnc(-c2cc(C(F)(F)F)cc(C(F)(F)F)c2)n1)NNc1cnccn1` [selinexor], the Solubility entry under setting [1] is reported as “insoluble in water”. Take `COc1cc(N2CCC(N3CCN(C)CC3)CC2)ccc1Nc1ncc(Cl)c(Nc2ccccc2P(C)(C)=O)n1` [brigatinib]: the Solubility result under setting [1] is listed as “insoluble in water”. `CN(C)CCOc1ccc(/C(=C(/CCCl)c2ccccc2)c2ccccc2)cc1` [toremifene citrate]: the Water solubility (at 37° C.) is 37 °C is 0.63 mg/mL.

For `Cn1nnc2c(C(N)=O)ncn2c1=O` [temozolomide], for the setting “condition not given”, the Solubility is given as 7 mg/mL (≈ 36.1 mM). As for `CC(C)C(=O)Nc1ccc([N+](=O)[O-])c(C(F)(F)F)c1` [flutamide], the Solubility entry under setting [1] is recorded as “insoluble in water”. Regarding `Cc1cnc(Nc2ccc(OCCN3CCCC3)cc2)nc1Nc1cccc(S(=O)(=O)NC(C)(C)C)c1` [fedratinib], the Solubility entry was “condition (>100 mg/mL” (pH 1) and “(4 mcg/mL at pH 7.4)” (pH 7.4).

Consider `Nc1nc(F)nc2c1ncn2[C@@H]1O[C@H](COP(=O)(O)O)[C@@H](O)[C@@H]1O` [fludarabine phosphate], for which the Solubility (condition not given) is 3 mg/mL. On to `Nc1ncn([C@@H]2O[C@H](CO)[C@@H](O)[C@H]2O)c(=O)n1` [azacitidine], for which the Solubility entry under setting [1] was “water soluble”. For `O=P1(N(CCCl)CCCl)NCCCO1` (centres unmarked) [cyclophosphamide], the Solubility result under setting [1] was “water soluble”. As for `CO[C@H]1C[C@@H]2CC[C@@H](C)[C@@](O)(O2)C(=O)C(=O)N2CCCC[C@H]2C(=O)O[C@H]([C@H](C)C[C@@H]2CC[C@@H](OCCO)[C@H](OC)C2)CC(=O)[C@H](C)/C=C(\C)[C@@H](O)[C@@H](OC)C(=O)[C@H](C)C[C@H](C)/C=C/C=C/C=C/1C` [everolimus], the Solubility entry under setting [1] is “insoluble in water”.

For `C[C@@H](Oc1cc(-c2cnn(C3CCNCC3)c2)cnc1N)c1c(Cl)ccc(F)c1Cl` [crizotinib], the Solubility result (pH 1.6) was “greater than 10 mg/mL”. With `Cc1ccc(Nc2nccc(N(C)c3ccc4c(C)n(C)nc4c3)n2)cc1S(N)(=O)=O` [pazopanib], the Solubility result under setting [1] was “insoluble in water”. As to `Nc1cccc2c1CN(C1CCC(=O)NC1=O)C2=O` (centres unmarked) [lenalidomide], the Solubility entry under setting [1] is “insoluble in water”.

Take `CS(=O)(=O)OCCCCOS(C)(=O)=O` [busulfan]: the Solubility result under setting [1] is recorded as “insoluble in water”. Take `N[C@@H](Cc1cc(I)c(Oc2cc(I)c(O)c(I)c2)c(I)c1)C(=O)O` [levothyroxine sodium]: the Solubility entry under setting [1] was “insoluble in water”. `COc1cc2nccc(Oc3ccc(NC(=O)NC4CC4)c(Cl)c3)c2cc1C(N)=O` [lenvatinib]: the Solubility result under setting [1] is given as “slightly soluble in water”. Take `C1=C/COCc2cc(ccc2OCCN2CCCC2)Nc2nccc(n2)-c2cccc(c2)COC/1` [pacritinib]: the Solubility entry under setting [1] is given as “insoluble in water”. On to `CN1CC[C@@H](NC(=O)Nc2ccc(C#N)cc2)C[C@@H]1c1nc2ccccc2[nH]1` [glasdegib], for which, where the note is “condition not given”, the Solubility is 1.7 mg/mL (≈ 4.54 mM). Regarding `CCCCCOC(=O)Nc1nc(=O)n([C@@H]2O[C@H](C)C(O)C2O)cc1F` (stereo partly drawn) [capecitabine, pentyl ester [1-(5-deoxy-β-d-ribofuranosyl)-5-fluoro-1,2-dihydro-2-oxo-4-pyrimidinyl]-carbamic acid, reference compound], where the note is “at 25° C.”, the Solubility was 6 mg/mL at 25 °C. In the case of `CO[C@@H]1[C@H](N(C)C(=O)c2ccccc2)C[C@H]2O[C@]1(C)n1c3ccccc3c3c4c(c5c6ccccc6n2c5c31)C(=O)NC4` [midostaurin], the Solubility entry under setting [1] is given as “insoluble in water”. `COc1cc2nccc(Oc3ccc(NC(=O)Nc4cc(C)on4)c(Cl)c3)c2cc1OC` [tivozanib]: the Solubility result under setting [1] is recorded as “insoluble in water”. For `Cc1nccn1CC1CCc2c(c3ccccc3n2C)C1=O` (centres unmarked) [ondansetron hydrochloride], the Solubility entry under setting [1] is “water soluble”. In the case of `CN1CCC(COc2cnc(-c3cccc(Cn4nc(-c5cccc(C#N)c5)ccc4=O)c3)nc2)CC1` [tepotinib], the Solubility result under setting [1] is recorded as “insoluble in water”.

With `Cn1cc(-c2cc3c(N4CCN(c5ncc([C@@](C)(N)c6ccc(F)cc6)cn5)CC4)ncnn3c2)cn1` [avapritinib], the Solubility entry under setting [1] is given as “insoluble in water”. On to `CC[C@@]1(O)C(=O)OCc2c1cc1n(c2=O)Cc2cc3c(CN(C)C)c(O)ccc3nc2-1` [topotecan], for which the Solubility entry under setting [1] is “water soluble”. On to `COc1cc2ncnc(Nc3ccc(F)c(Cl)c3)c2cc1NC(=O)/C=C/CN1CCCCC1` [dacomitinib], for which, under setting [1], the Solubility entry was “insoluble in water”. With `CS(=O)(=O)c1ccc(Oc2cc(F)cc(C#N)c2)c2c1[C@H](O)[C@H](F)[C@@H]2F` [belzutifan], the Solubility result under setting [1] is on record as “insoluble in water”. Consider `C=CC(=O)N1CCN(c2nc(=O)n(-c3c(C)ccnc3C(C)C)c3nc(-c4c(O)cccc4F)c(F)cc23)[C@@H](C)C1` [sotorasib], for which the Solubility (aqueous media, pH 6.8) is 0.03 mg/mL (≈ 0.0535 mM). As to `Cc1nc(NC(=O)N2CCC[C@H]2C(N)=O)sc1-c1ccnc(C(C)(C)C(F)(F)F)c1` [alpelisib], under setting [1], the Solubility entry is on record as “insoluble in water”. Regarding `O=C(O)CCCc1ccc(N(CCCl)CCCl)cc1` [chlorambucil], the Solubility result under setting [1] is given as “insoluble in water”.
